Here are results for one compound from patent publication US20230406803A1, “TROPOLONE DERIVATIVES AND TAUTOMERS THEREOF FOR IRON REGULATION IN ANIMALS” (Kinesid Therapeutics, Inc, priority 2020, published 2023).

Structures are written as SMILES.

Data set [1] is described as follows: Ligand facilitated Fe(III) efflux from liposomes. Further details: unit not given here. In kind it is biochemical. To be noted: efflux rate k at 10 μM ligand concentration; ferrozine absorbance 562 nm, 120 min kinetic read. Summed up:
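POPC/cholesterol liposomes loaded with Fe(III) citrate in MES/Tris pH 7.0, diluted to 1 mM phosphorus in ascorbate buffer with 1 mM ferrozine outside. Ligand at 1.25–40 µM; absorbance at 562 nm read every 60 s for 120 min. Efflux rate k fitted by single-phase association, averaged over triplicates, compared at 10 µM.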

The nature of data set [2]: Human liver microsomal stability assay. In kind it is in vitro ADME. To be noted: human liver microsomes. An excerpt:
(§1) Further examples of useful assays include metabolic stability assays, such as but not limited to e.g., liver microsomal clearance assays which provide measurement such as, but not limited to e.g., liver microsomal clearance half-life (t1/2), liver microsomal intrinsic clearance (CLint), and the like. Such measurements are useful in assessing various characteristics of a subject compound, such as e.g., the availability of an intact compound to provide a pharmacological effect. A compound having a longer microsomal clearance half-life (t1/2), e.g., than a reference compound, will provide better exposure of the intact compound and greater availability to produce the relevant pharmacological effect. A compound having a less microsomal clearance, e.g., as measured by liver microsomal intrinsic clearance (CLint), will similarly result in greater exposure of the intact compound available for an increase in the relevant pharmacological effect, e.g., as compared to that of a reference compound with a higher liver microsomal intrinsic clearance (CLint). Other useful assays include in vitro hepatocyte metabolic stability assays.
(§2) Such assessments included human and mouse liver microsomal stability assays as well as 6-hour mouse PK studies.
On the technique in general: Microsomes from liver hold many membrane-bound enzymes, among them those of drug oxidation.

Data set [3] is described as follows: Mouse liver microsomal stability assay. In kind it is in vitro ADME. To be noted: mouse liver microsomes.
From the text: as §1, §2

In the case of `CC(C)c1cccc(=O)c(O)c1` [hinokitiol, reference compound], in data set [1], the “Liposome Fe transport kefflux at 10 μM” value is 7.77. Besides, the microsomal CLint in data set [2] (read-out: Human CLint) was 120 µL/min/mg; in data set [3] (read-out: Mouse CLint), 46.7 µL/min/mg. Besides, the half-life stood at 11.6 min in data set [2] (read-out: Human t1/2) and 29.7 min in data set [3] (read-out: Mouse t1/2).
